Data reported in patent US20210300900A1, “OGA INHIBITOR COMPOUNDS” (Janssen Pharmaceutica NV, priority 2018, published 2021).

Molecular target: T1, recombinant human Meningioma Expressed Antigen 5 (MGEA5), also referred to as O-GcNAcase (OGA) (Homo sapiens, UniProt O60502)
T1 construct: Full length OGA enzyme was purchased at OnGene (cat #TP322411); purchased OnGene (so in the source)
T1 sequence (O60502 1-916): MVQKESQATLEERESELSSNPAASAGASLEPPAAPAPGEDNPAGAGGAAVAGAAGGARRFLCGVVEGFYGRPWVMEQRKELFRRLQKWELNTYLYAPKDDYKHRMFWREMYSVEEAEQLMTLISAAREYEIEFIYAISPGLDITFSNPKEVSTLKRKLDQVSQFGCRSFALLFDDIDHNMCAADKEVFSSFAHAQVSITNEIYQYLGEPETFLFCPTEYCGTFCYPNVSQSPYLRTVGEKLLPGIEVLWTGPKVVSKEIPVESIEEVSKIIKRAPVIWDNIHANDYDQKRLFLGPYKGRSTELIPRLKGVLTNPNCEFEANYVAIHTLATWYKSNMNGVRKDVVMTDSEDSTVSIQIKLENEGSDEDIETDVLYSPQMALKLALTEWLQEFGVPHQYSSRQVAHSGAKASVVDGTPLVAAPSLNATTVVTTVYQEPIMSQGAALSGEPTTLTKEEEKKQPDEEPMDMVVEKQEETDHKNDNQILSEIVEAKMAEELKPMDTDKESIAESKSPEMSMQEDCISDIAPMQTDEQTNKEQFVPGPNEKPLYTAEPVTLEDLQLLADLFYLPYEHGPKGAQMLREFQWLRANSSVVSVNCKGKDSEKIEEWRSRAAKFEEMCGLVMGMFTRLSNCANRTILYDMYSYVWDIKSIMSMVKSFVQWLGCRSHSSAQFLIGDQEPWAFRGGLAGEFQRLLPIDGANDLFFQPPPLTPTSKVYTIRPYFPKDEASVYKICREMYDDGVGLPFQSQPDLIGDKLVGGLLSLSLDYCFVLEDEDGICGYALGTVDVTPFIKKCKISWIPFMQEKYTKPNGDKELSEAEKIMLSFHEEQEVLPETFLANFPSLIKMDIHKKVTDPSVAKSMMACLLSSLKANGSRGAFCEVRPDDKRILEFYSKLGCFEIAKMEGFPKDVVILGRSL
Test: OGA biochemical assay (inhibition of FM-GlcNAc hydrolysis, fluorescence)
Conditions: FM-GlcNAc substrate; for Emax: read-out: Enzymatic Emax (%); for IC50: read-out: Enzymatic hOGA, pIC50 (converted)
Description: The assay is based on the inhibition of the hydrolysis of fluorescein mono-β-D-N-Acetyl-Glucosamine (FM-GlcNAc) (Mariappa et al. 2015, Biochem J 470:255) by the recombinant human Meningioma Expressed Antigen 5 (MGEA5), also referred to as O-GcNAcase (OGA). The hydrolysis FM-GlcNAc (Marker Gene technologies, cat #M1485) results in the formation of B-D-N-glucosamineacetate and fluorescein. The fluorescence of the latter can be measured at excitation wavelength 485 nm and emission wavelength 538 nm. An increase in enzyme activity results in an increase in fluorescence signal. Full length OGA enzyme was purchased at OnGene (cat #TP322411). The enzyme was stored in 25 mM Tris.HCl, pH 7.3, 100 mM glycine, 10% glycerol at −20° C. Thiamet G and GlcNAcStatin were tested as reference compounds (Yuzwa et al. 2008 Nature Chemical Biology 4:483; Yuzwa et al. 2012 Nature Chemical Biology 8:393). The assay was performed in 200 mM Citrate/phosphate buffer supplemented with 0.005% Tween-20. 35.6 g Na2HPO4 2H2O (Sigma, #C0759) were dissolved in 1 L water to obtain a 200 mM solution. 19.2 g citric acid (Merck, #1.06580) was dissolved in 1 L water to obtain a 100 mM solution. pH of the sodiumphosphate solution was adjusted with the citric acid solution to 7.2. The buffer to stop the reaction consists of a 500 mM Carbonate buffer, pH 11.0. 734 mg FM-GlcNAc were dissolved in 5.48 mL DMSO to obtain a 250 mM solution and was stored at −20° C. OGA was used at a 2 nM concentration and FM-GlcNAc at a 100 uM final concentration. Dilutions were prepared in assay buffer.
50 nl of a compound dissolved in DMSO was dispensed on Black Proxiplate TM 384 Plus Assay plates (Perkin Elmer, #6008269) and 3 μl fl-OGA enzyme mix added subsequently. Plates were pre-incubated for 60 min at room temperature and then 2 μl FM-GlcNAc substrate mix added. […] Plates were briefly centrifuged for 1 min at 1000 rpm and incubate at room temperature for 6 h. To stop the reaction 5 μl STOP buffer were added and plates centrifuge again 1 min at 1000 rpm. Fluorescence was quantified in the Thermo Scientific Fluoroskan Ascent or the PerkinElmer EnVision with excitation wavelength 485 nm and emission wavelength 538 nm.
For analysis a best-fit curve is fitted by a minimum sum of squares method. From this an IC50 value and Hill coefficient was obtained. High control (no inhibitor) and low control (saturating concentrations of standard inhibitor) were used to define the minimum and maximum values.

Enzymatic Emax (%)	Enzymatic hOGA; pIC50	Emax	IC50	Compound
44%	<5	–	–	COc1ccc(F)c([C@@H](C)N2CCC[C@H](Cc3cc(C)nc(C)c3)C2)n1 [Product 41]
–	–	98%	0.229 µM	COc1ccc(C(C)N2CCC[C@H](Cc3cc(C)nc(C)c3)C2)cn1 (mixture of isomers) [Product 52]
–	–	38%	> 10 µM	COc1cncc(C[C@H]2CCN(C(C)c3cccc(OC)n3)C2)c1 (mixture of isomers) [Product 143]
–	–	46%	> 10 µM	COc1ccc(C[C@H]2CCN(C(C)c3cccc(OC)n3)C2)nc1 (mixture of isomers) [Product 150]
–	–	33.1%	> 10 µM	COc1cccc(C(C)N2CC[C@H](Cc3ccncc3F)C2)n1 (mixture of isomers) [Product 146]
–	–	26%	> 10 µM	CCOc1cc(C[C@@H]2CCN(C(C)c3c[nH]c(OCC)n3)C2)ccn1 (mixture of isomers) [Product 164]
–	–	30.5%	> 10 µM	COc1cccc(C(C)N2CC[C@H](Cc3ccc(C(F)(F)F)nc3)C2)n1 (mixture of isomers) [Product 142]
–	–	95%	0.575 µM	CCOc1cc(C(C)N2CCC[C@H](Cc3cc(C)nc(C)c3)C2)nn1C (mixture of isomers) [Product 18]
–	–	71%	4.57 µM	CCOc1ncc(CN2CCC[C@H](Cc3cc(C)nc(C)c3)C2)s1 [Product 26]
–	–	96%	0.245 µM	CCOc1cc(C(C)N2CCC[C@H](Cc3cc(C)nc(C)c3)C2)n(C)n1 (mixture of isomers) [Product 17]
102%	7.01	–	–	CCOc1cccc([C@@H](C)N2CCC[C@H](Cc3cc(C)nc(C)c3)C2)n1 [Product 51]
–	–	75%	3.16 µM	CNC(=O)c1cc(C(C)N2CC[C@H](Cc3cc(C)nc(OC)c3)C2)n[nH]1 (mixture of isomers) [Product 101]
–	–	96%	0.741 µM	COc1cccc(C(C)N2CCCC(c3cc(C)nc(C)c3)C2)n1 (centres unmarked) [Product 73]
–	–	75%	4.37 µM	COc1cc(C[C@H]2CCN(C(C)c3cccc(OC)n3)C2)cc(C)n1 (mixture of isomers) [Product 129]
–	–	93%	1.05 µM	CCNc1cc(CN2CCC[C@H](Cc3cc(C)nc(C)c3)C2)n[nH]1 [Product 2]
–	–	99%	0.282 µM	COc1cc(C(C)N2CCC[C@H](Cc3cc(C)nc(C)c3)C2)ccn1 (mixture of isomers) [Product 53]
–	–	29%	> 10 µM	CNC(=O)c1nc(C(C)N2CC[C@@H](Cc3cc(C)nc(C)c3)C2)c[nH]1 (mixture of isomers) [Product 163]
–	–	101%	0.355 µM	COc1cccc(C(C)N2CCC[C@H](Cc3cc(OC)nc(C(F)(F)F)c3)C2)n1 (mixture of isomers) [Product 78]
6%	<5	–	–	COc1ccc(C)c([C@@H](C)N2CCC[C@H](Cc3cc(C)nc(C)c3)C2)n1 [Product 57]
–	–	56%	9.55 µM	COc1cccc(C(C)N2CC[C@H](Cc3ccnc(OC(C)C)c3)C2)n1 (mixture of isomers) [Product 126]
–	–	44.3%	> 10 µM	COc1cccc(C(C)N2CC[C@H](Cc3cccnc3C(F)(F)F)C2)n1 (mixture of isomers) [Product 145]

Enzymatic Emax (%)	Enzymatic hOGA; pIC50	Emax	IC50	Compound
–	–	97%	0.38 µM	COc1cc(C[C@@H]2CCN(C(C)c3cc(NC(C)=O)[nH]n3)C2)cc(C)n1 (mixture of isomers) [Product 131]
–	–	98%	0.219 µM	CCOc1cccc(C(C)N2CCC[C@H](Cc3cc(C)nc(C)c3)C2)n1 (mixture of isomers) [Product 49]
–	–	92%	1.12 µM	COc1ccc(F)c(C(C)N2CC[C@@H](Cc3cc(C)nc(C)c3)C2)n1 (mixture of isomers) [Product 98]
–	–	97%	0.302 µM	Cc1cc(C[C@H]2CCCN(C(C)c3nc(OC4CCC4)ccc3F)C2)cc(C)n1 (single isomer, unassigned) [Product 55]
–	–	98%	0.759 µM	CCOc1cnc(C(C)N2CC[C@@H](Cc3cc(C)nc(OC)c3)C2)o1 (mixture of isomers) [Product 133]
–	–	86%	1.26 µM	COc1cc(C(C)N2CCC[C@H](Cc3cc(C)nc(C)c3)C2)on1 (mixture of isomers) [Product 29]
–	–	95%	0.562 µM	COc1cc(C2CCCN(C(C)c3cc(NC(C)=O)[nH]n3)C2)cc(C)n1 (centres unmarked) [Product 75]
–	–	92%	0.813 µM	CC(=O)Nc1cc(C(C)N2CC[C@H](Cc3ncc(C)nc3C)C2)n[nH]1 (some centres unmarked) [Product 110]
–	–	99%	0.562 µM	COc1cc(OC2CCCN(C(C)c3nc(OC)ccc3F)C2)cc(C)n1 (centres unmarked) [Product 81]
–	–	–	> 10 µM	CC(=O)Nc1ncc(CN2CCC[C@H](Cc3cc(C)nc(C)c3)C2)n1C [Product 159]
–	–	74%	3.89 µM	COc1ccc(F)c(C(C)N2CC[C@H](Cc3ncc(C)nc3C)C2)n1 (some centres unmarked) [Product 113]
–	–	91%	0.646 µM	COc1cc(C(C)N2CC[C@@H](Cc3cc(C)nc(C)c3)C2)c(F)cn1 (mixture of isomers) [Product 99]
–	–	59%	7.76 µM	COCc1cc(C(C)N2CC[C@@H](Cc3cc(C)nc(OC)c3)C2)nn1C (mixture of isomers) [Product 132]
–	–	94%	0.575 µM	CC(=O)Nc1cc(C(C)N2CC[C@@H](Cc3cc(C)nc(C)c3)C2)n[nH]1 (some centres unmarked) [Product 97]
–	–	63%	6.61 µM	CCOc1nc(CN2CCC[C@H](Cc3cc(C)nc(C)c3)C2)c(Br)[nH]1 [Product 22]
–	–	51%	8.71 µM	COc1cc(C[C@H]2CCN(C(C)c3cccc(OC)n3)C2)ccn1 (mixture of isomers) [Product 124]
–	–	75%	4.17 µM	CCOc1cc(C(C)N2CC[C@H](Cc3cc(C)nc(C(F)(F)F)c3)C2)n[nH]1 (mixture of isomers) [Product 120]
–	–	63%	6.46 µM	CC(=O)Nc1ccnc(CN2CCC[C@H](Cc3cc(C)nc(C)c3)C2)c1 [Product 31]
–	–	73.3%	3.98 µM	CCOc1cc(C(C)N2CC[C@H](Cc3cc(C)nc(C)c3)C2)n[nH]1 (mixture of isomers) [Product 139]
29%	<5	–	–	COc1cccc([C@H](C)N2CCC[C@H](CNc3cc(C)nc(C(F)(F)F)c3)C2)n1 [Product 93]
–	–	14.4%	> 10 µM	COc1cccc(C(C)N2CC[C@H](Cc3cccc(C(F)(F)F)n3)C2)n1 (mixture of isomers) [Product 147]
